Test results published in patent EP0256125A1, “MEANS FOR PREVENTING MICROBIOLOGICAL OVERGROWING OF HARD SURFACE” (priority 1985, dated 1987).

Key:
[1] = Solubility in solvents (qualitative)
p.Pseudomonas = experiment: Bactericidal activity, growth on agar medium; assay type: cell-based; conditions: 37°C, 5 Tage
Protocol: (§1) Die bakterizide Aktivität des Kalium N-(vinyloxyethyl)-dithiocarbamats gegenüber den Bakterien, die von der Oberfläche von Wänden und Decken der Produktionsräume von Brauereien und Fabriken zur Herstellunq von alkoholfreien Getränken ausgeschieden wurden und die zu p.p.Bacillus, Micrococcus, Pseudomonas, Escherichiae gehören, wurde geprüft.
(§2) Es wurden wäßrige Lösungen des genannten Stoffes verschiedener Konzentration hergestellt, die so berechnet wurde, daß bei Einführung von 1 ml der Lösung in 25 ml geschmolzenen agarisierten Nährboden (45-50°C) die Konzentration des Stoffes im Nährboden von 0,003 bis 0,5% betrug. In 18 bis 24 Stunden wurde auf die Oberfläche des Nährbodens 0,1 ml der wäßrigen Suspension der eintägigen reinen Bakterienkulturen aufgetragen, die am Fleisch-Pepton-Agar gezüchtet wurden. Die Suspension wurde gleichmäßig verteilt. In Kontrollschalen wurden 0,1 ml Wasser auf der Oberfläche des Närhbodens verteilt.
(§3) Die Inkubation führte man bei einer Temperatur von 37°C während 5 Tage durch.
(§4) Die effektive Wirkung des Stoffes wurde nach dem Auftreten des Bakterienwachstums an der Oberfläche des Nährbodens bewertet.

p. Escherichiae = experiment: Bactericidal activity, growth on agar medium; assay type: cell-based; conditions: 37°C, 5 Tage
Protocol: as §1, §2, §3, §4

p.Micrococcus = experiment: Bactericidal activity, growth on agar medium; assay type: cell-based; conditions: 37°C, 5 Tage
Protocol: as §1, §2, §3, §4

p.Bacillus = experiment: Bactericidal activity, growth on agar medium; assay type: cell-based; conditions: 37°C, 5 Tage
Protocol: as §1, §2, §3, §4

[2] = tested on: Penicillium charlesii Smith; experiment: Fungicidal activity, inhibition of mycelium growth on wort agar; assay type: cell-based
Text: (§5) Man prüfte die funguzide Aktivität von Zink-bis-(N-vi- nyloxyethyl)dithiocarbamat gegenüber den reinen Pilzkulturen: Gladosporium resinae, Cladosporium cladosporioides, Acremonium corvum, Acremonium charticola, Penicillium charlesii Smith, Walrotiela subiculesa, Geotrichum candidum Link, Oidium, Penicillium crysogenum. Die genannten Pilze wurden von den Oberflächen der Wände und Decken von Bierbrauereien und Werken für die Herstellung von alkoholfreien Getränken ausgeschieden.
(§6) […] In eine der Petri-Schalen wurde Nährboden mit 1 ml Azeton (Kontrolle) gegossen.
(§7) In 18 bis 20 Stunden nach dem Vergießen des Nährbodens in die Petri-Schalen führte man die Inokulation der reinen Pilzkultur durch, die vorher an einem Schräg-Würzeagar während 15 Tage gezüchtet wurden. Die Inkubation führte man bei einer Temperatur von 25 bis 27°C während 5 Tage durch. Danach wurde der Durchmesser der Pilzkolonien gemessen und der Prozentsatz der Hemmung des Wachstums des Myzeliums (S) nach der Abbott -Formel gezählt: [formula] worin dc Durchmesser der Pilzkolonien in Kontrolle ist, de =Durchmesser der Pilzkolonien in einer Schale mit dem Nährboden ist, der Zink-bis-(N-vinyloxyethyl)dithiocarbamat enthält.

Acremonium charticola = experiment: as above; assay type: cell-based
Text: as §5, §6, §7

Oidium = experiment: as above; assay type: cell-based
Text: as §5, §6, §7

Penicillium chrysogenum = experiment: as above; assay type: cell-based
Text: as §5, §6, §7

Walrotiela subiculesa = experiment: as above; assay type: cell-based
Text: as §5, §6, §7

[3] = tested on: Cladosporium cladosporioides; experiment: as above; assay type: cell-based
Text: as §5, §6, §7

Acremonium corvum = experiment: as above; assay type: cell-based
Text: as §5, §6, §7

Geotrichum candidum Link = experiment: as above; assay type: cell-based
Text: as §5, §6, §7

Cladosporium resinae = experiment: as above; assay type: cell-based
Text: as §5, §6, §7

[4] = tested on: Schimmelpilzen, die die Bewachsung von Oberflächen hervorrufen; experiment: Fungicidal activity, summary over all tested fungi; assay type: cell-based; conditions: day 5
Text: as §5
Es wurden Lösungen des Zink-bis-(N-vinyloxyethyl)di- thiocarbamats im Azeton verschiedener Konzentration hergestellt, die so berechnet wurde, daß bei der Einführung vor 1 ml Lösung in 10 ml des geschmolzenen Würzeagars (45-50°C) die Konzentration des genannten Stoffes im Medium von 0,0015 bis 0,012% betrug. In eine der Petri-Schalen wurde Nährboden mit 1 ml Azeton (Kontrolle) gegossen.
as §7

weißen Mäusen = experiment: Acute toxicity in white mice; conditions: perorale Einführung bei weißen Mäusen
[5] = Konzentration des Stoffes 0,0015 %
[6] = Konzentration des Stoffes 0,003 %
[7] = Konzentration des Stoffes 0,006 %
[8] = Konzentration des Stoffes 0,012 %

Zink-bis-(N-vinyloxyethyl)dithiocarbamat
unlöslich: Löslichkeit in Wasser ([1]; Wasser)
50%: Hemmung des Myzeliums am 5. Tag des Wachstums, Acremonium charticola (Acremonium charticola; [5])
37,5%: Hemmung des Myzeliums am 5. Tag des Wachstums, Cladosporium resinae (Cladosporium resinae; [5])
40%: Hemmung des Myzeliums am 5. Tag des Wachstums, Penicillium chrysogenum (Penicillium chrysogenum; [6]) | Hemmung des Myzeliums am 5. Tag des Wachstums, Acremonium corvum (Acremonium corvum; [5])
52%: Hemmung des Myzeliums am 5. Tag des Wachstums, Walrotiela subiculesa (Walrotiela subiculesa; [5])
1120 + 260 mg/kg: LD50 (weißen Mäusen)
29%: Hemmung des Myzeliums am 5. Tag des Wachstums, Geotrichum candidum Link (Geotrichum candidum Link; [5])
begrenzt: Löslichkeit im Alkohol ([1]; Alkohol (Ethylalkohol)) | Löslichkeit im Azeton ([1]; Azeton)
100%: Hemmung des Myzeliums am 5. Tag des Wachstums, Penicillium charlesii Smith [2, 6] | Hemmung des Myzeliums am 5. Tag des Wachstums, Penicillium charlesii Smith [2, 7] | Hemmung des Myzeliums am 5. Tag des Wachstums, Penicillium charlesii Smith [2, 8] | Hemmung des Myzeliums am 5. Tag des Wachstums, Acremonium charticola (Acremonium charticola; [6]) | Hemmung des Myzeliums am 5. Tag des Wachstums, Acremonium charticola (Acremonium charticola; [7]) | Hemmung des Myzeliums am 5. Tag des Wachstums, Acremonium charticola (Acremonium charticola; [8]) | Hemmung des Myzeliums am 5. Tag des Wachstums, Oidium (Oidium; [6]) | Hemmung des Myzeliums am 5. Tag des Wachstums, Oidium (Oidium; [7]) | Hemmung des Myzeliums am 5. Tag des Wachstums, Oidium (Oidium; [8]) | Hemmung des Myzeliums am 5. Tag des Wachstums, Penicillium chrysogenum (Penicillium chrysogenum; [8]) | Hemmung des Myzeliums am 5. Tag des Wachstums, Walrotiela subiculesa (Walrotiela subiculesa; [6]) | Hemmung des Myzeliums am 5. Tag des Wachstums, Walrotiela subiculesa (Walrotiela subiculesa; [7]) | Hemmung des Myzeliums am 5. Tag des Wachstums, Walrotiela subiculesa (Walrotiela subiculesa; [8]) | Hemmung des Myzeliums am 5. Tag des Wachstums, Cladosporium cladosporioides [3, 5] | Hemmung des Myzeliums am 5. Tag des Wachstums, Cladosporium cladosporioides [3, 6] | Hemmung des Myzeliums am 5. Tag des Wachstums, Cladosporium cladosporioides [3, 7] | Hemmung des Myzeliums am 5. Tag des Wachstums, Cladosporium cladosporioides [3, 8] | Hemmung des Myzeliums am 5. Tag des Wachstums, Acremonium corvum (Acremonium corvum; [6]) | Hemmung des Myzeliums am 5. Tag des Wachstums, Acremonium corvum (Acremonium corvum; [7]) | Hemmung des Myzeliums am 5. Tag des Wachstums, Acremonium corvum (Acremonium corvum; [8]) | Hemmung des Myzeliums am 5. Tag des Wachstums, Geotrichum candidum Link (Geotrichum candidum Link; [6]) | Hemmung des Myzeliums am 5. Tag des Wachstums, Geotrichum candidum Link (Geotrichum candidum Link; [7]) | Hemmung des Myzeliums am 5. Tag des Wachstums, Geotrichum candidum Link (Geotrichum candidum Link; [8]) | Hemmung des Myzeliums am 5. Tag des Wachstums, Cladosporium resinae (Cladosporium resinae; [6]) | Hemmung des Myzeliums am 5. Tag des Wachstums, Cladosporium resinae (Cladosporium resinae; [7]) | Hemmung des Myzeliums am 5. Tag des Wachstums, Cladosporium resinae (Cladosporium resinae; [8])
80%: Hemmung des Myzeliums am 5. Tag des Wachstums, Oidium (Oidium; [5]) | Hemmung des Myzeliums am 5. Tag des Wachstums, Penicillium chrysogenum (Penicillium chrysogenum; [7])
0,05%: Konzentration der Salze der N-(vinyloxyethyl)dithiocarbaminsäure (100%), die das Wachstum der Bakterien am 5. Tag des Wachstums hemmen, p.Pseudomonas (p.Pseudomonas) | Konzentration der Salze der N-(vinyloxyethyl)dithiocarbaminsäure (100%), die das Wachstum der Bakterien am 5. Tag des Wachstums hemmen, p. Escherichiae (p. Escherichiae) | Konzentration der Salze der N-(vinyloxyethyl)dithiocarbaminsäure (100%), die das Wachstum der Bakterien am 5. Tag des Wachstums hemmen, p.Micrococcus (p.Micrococcus) | Konzentration der Salze der N-(vinyloxyethyl)dithiocarbaminsäure (100%), die das Wachstum der Bakterien am 5. Tag des Wachstums hemmen, p.Bacillus (p.Bacillus)
90%: Hemmung des Myzeliums am 5. Tag des Wachstums, Penicillium charlesii Smith [2, 5]
10%: Hemmung des Myzeliums am 5. Tag des Wachstums, Penicillium chrysogenum (Penicillium chrysogenum; [5])
gut: Löslichkeit im Dimethylsulfoxid ([1]; Dimethylsulfoxid)
0,012%: Konzentration, bei der die Entwicklung aller untersuchten Pilze vollständig gehemmt wurde [4]
